Data: patent publication US20130197480A1, “METHODS AND SYSTEMS FOR DELIVERY OF LIVE CELLS” (PALOMAR MEDICAL TECHNOLOGIES, INC., priority 2012, published 2013)

Test system: Human fibroblast cells in culture
Test: Common laser pre-treatment compounds incubated 45 min with cultured human fibroblasts, visual inspection
Conditions: for Viability/Inspection 24 hrs / Viability/Inspector 1 week: cells rinsed, fresh media; for Viability/Inspection 24 hrs: observed 24 hours post exposure; for Viability/Inspector 1 week: observed one week post exposure; for Viability/nspection 45 min: visual inspection after 45 minutes incubation with compound
Procedure: AG07999 human skin fibroblasts (HSF; Coriell, Camden, N.J.) were grown to confluence in minimal essential media (MEM; Gibco, Grand Island, N.Y.) supplemented with 10% FBS (Hyclone, Logan, Utah), 20 mM L-glutamine, and 20 mM Glutamax™ (Gibco). Cells were maintained in an incubator at 37° C. and 5% CO2 and serially passaged with trypsin digestion at a 1:3 ratio as needed.
This example describes in vitro (in silico) testing of compounds added to human fibroblast cell cultures to determine any detrimental effects to the cells.
The remaining compositions and mixtures were tested as they are expected to be common treatments that might be used for numbing or cleansing of skin prior to laser treatment and cell delivery, or coagulation compounds, that are available in most physician offices. […] In addition, the delivery vehicle for SRF and lidocaine were tested to determine which vehicle (cream, lotion, petrolatum, lipoderm) was least destructive to the cells.

Compound	Viability/Inspection 24 hrs	Viability/Inspector 1 week	Viability/nspection 45 min
CNC[C@H](O)c1ccc(O)c(O)c1 [Epinephrine 1:10,000,000, Epinephrine]	Normal	Confluent/overgrown	Normal
CNC[C@H](O)c1ccc(O)c(O)c1 [Epinephrine 1:100,000, Epinephrine]	Normal	Confluent/overgrown	Slight change in morphology,
CCN(CC)CC(=O)Nc1c(C)cccc1C [Lidocaine 0.5%, Lidocaine]	Normal	Confluent/overgrown	Normal
